Experimental findings from patent US11344554B2, “Animal and human anti-malarial agents” (Celgene Corporation, priority 2016, dated 2022) are described below.

For this assay, the system named is Plasmodium falciparum. The assay can be described thus: Plasmodium falciparum in vitro [3H]-hypoxanthine parasite growth inhibition assay. Type of assay: cell-based. The following applies: Erythrocyte, P. falciparum asexual blood stage parasites in human erythrocytes, [3H]-hypoxanthine uptake, read-out: Act Class (IC50 activity level).

Consider `CC(C)(C)Nc1ncc2nc(Nc3cccc(C(F)(F)F)c3)n(C3CCC4CNCC4C3)c2n1` (centres unmarked) [Cpd 78, N2-tert-butyl-9-(octahydro-1H-isoindol-5-yl)-N8-(3-(trifluoromethyl)phenyl)-9H-purine-2,8-diamine], for which the IC50 (usually the concentration at which inhibition is half-maximal) lay within 0.5 to 1.2 µM.
The result for `CC1(Nc2ncc3nc(Nc4ccc(C(F)(F)F)c(Cl)c4)n(C4CCNCC4)c3n2)CCCC1` [Cpd 94, N8-(3-chloro-4-(trifluoromethyl)phenyl)-N2-(1-methylcyclopentyl)-9-(piperidin-4-yl)-9H-purine-2,8-diamine] reads 0.1 to 0.2 µM; that for `FC(F)(F)c1ccc(Nc2nc3cnc(NC4CC4)nc3n2C2CCNCC2)cc1Cl` [Cpd 81, N8-(3-chloro-4-(trifluoromethyl)phenyl)-N2-cyclopropyl-9-(piperidin-4-yl)-9H-purine-2,8-diamine], 0.2 to 0.5 µM.
Then `FC(F)(F)c1cc(Nc2nc3cnc(NC4CCCC4)nc3n2C2CCNCC2)ccc1Cl` [Cpd 87, N8-(4-chloro-3-(trifluoromethyl)phenyl)-N2-cyclopentyl-9-(piperidin-4-yl)-9H-purine-2,8-diamine], with 0.1 to 0.2 µM; and `CC1(Nc2ncc3nc(Nc4cc(Cl)cc(C(F)(F)F)c4)n(C4CCNCC4)c3n2)CCOCC1` [Cpd 54, N8-(3-chloro-5-(trifluoromethyl)phenyl)-N2-(4-methyltetrahydro-2H-pyran-4-yl)-9-(piperidin-4-yl)-9H-purine-2,8-diamine], with less than 0.1 µM.
